Laboratory results from paper PMC9030254, “Target Hopping from Protein Kinases to PXR: Identification of Small-Molecule Protein Kinase Inhibitors as Selective Modulators of Pregnane X Receptor from TüKIC Library” (Cells, 2022).

Assays:
Assay in all cases: Kinase profiling
Type in all cases: biochemical
BRK = molecular target: T1, BRK (Homo sapiens, UniProt Q13882)
T1 construct: purchased ProQinase (Freiburg, Germany)
Experimental: (§1) The analysis was performed by ProQinase (Freiburg, Germany).

CLK4 = molecular target: T2, CLK4 (Homo sapiens, UniProt Q9HAZ1)
T2 construct: purchased ProQinase (Freiburg, Germany)
Experimental: as §1

FGFR2 = molecular target: T3, FGFR2 (Homo sapiens, UniProt P21802)
T3 construct: purchased ProQinase (Freiburg, Germany)
Experimental: as §1

INSR = molecular target: T4, INSR (Homo sapiens, UniProt P06213)
T4 construct: purchased ProQinase (Freiburg, Germany)
Experimental: as §1

JNK3 = molecular target: T5, JNK3 (Homo sapiens, UniProt P53779)
T5 construct: purchased ProQinase (Freiburg, Germany)
Experimental: as §1

MARK3 = molecular target: T6, MARK3 (Homo sapiens, UniProt P27448)
T6 construct: purchased ProQinase (Freiburg, Germany)
Experimental: as §1

NIK = molecular target: T7, NIK (Homo sapiens, UniProt Q99558)
T7 construct: purchased ProQinase (Freiburg, Germany)
Experimental: as §1

PASK = molecular target: T8, PASK (Homo sapiens, UniProt Q96RG2)
T8 construct: purchased ProQinase (Freiburg, Germany)
Experimental: as §1

PKMYT1 = molecular target: T9, PKMYT1 (Homo sapiens, UniProt Q99640)
T9 construct: purchased ProQinase (Freiburg, Germany)
T9 sequence (Q99640 1-499): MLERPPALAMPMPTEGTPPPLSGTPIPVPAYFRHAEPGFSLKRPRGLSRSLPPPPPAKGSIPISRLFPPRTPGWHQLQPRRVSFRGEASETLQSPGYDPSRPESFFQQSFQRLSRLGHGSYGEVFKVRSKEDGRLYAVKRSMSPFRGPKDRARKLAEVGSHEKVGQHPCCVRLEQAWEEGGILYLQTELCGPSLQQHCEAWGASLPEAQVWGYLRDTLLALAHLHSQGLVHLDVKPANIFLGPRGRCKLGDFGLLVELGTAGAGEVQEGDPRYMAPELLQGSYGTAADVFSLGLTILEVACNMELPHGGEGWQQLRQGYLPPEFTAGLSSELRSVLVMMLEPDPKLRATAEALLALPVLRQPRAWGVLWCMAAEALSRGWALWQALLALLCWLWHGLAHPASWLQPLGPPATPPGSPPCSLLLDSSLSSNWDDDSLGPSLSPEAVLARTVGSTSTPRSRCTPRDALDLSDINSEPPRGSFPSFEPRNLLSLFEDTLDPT
Experimental: as §1

SAK = molecular target: T10, SAK (Homo sapiens, UniProt O00444)
T10 construct: purchased ProQinase (Freiburg, Germany)
T10 sequence (O00444 1-970): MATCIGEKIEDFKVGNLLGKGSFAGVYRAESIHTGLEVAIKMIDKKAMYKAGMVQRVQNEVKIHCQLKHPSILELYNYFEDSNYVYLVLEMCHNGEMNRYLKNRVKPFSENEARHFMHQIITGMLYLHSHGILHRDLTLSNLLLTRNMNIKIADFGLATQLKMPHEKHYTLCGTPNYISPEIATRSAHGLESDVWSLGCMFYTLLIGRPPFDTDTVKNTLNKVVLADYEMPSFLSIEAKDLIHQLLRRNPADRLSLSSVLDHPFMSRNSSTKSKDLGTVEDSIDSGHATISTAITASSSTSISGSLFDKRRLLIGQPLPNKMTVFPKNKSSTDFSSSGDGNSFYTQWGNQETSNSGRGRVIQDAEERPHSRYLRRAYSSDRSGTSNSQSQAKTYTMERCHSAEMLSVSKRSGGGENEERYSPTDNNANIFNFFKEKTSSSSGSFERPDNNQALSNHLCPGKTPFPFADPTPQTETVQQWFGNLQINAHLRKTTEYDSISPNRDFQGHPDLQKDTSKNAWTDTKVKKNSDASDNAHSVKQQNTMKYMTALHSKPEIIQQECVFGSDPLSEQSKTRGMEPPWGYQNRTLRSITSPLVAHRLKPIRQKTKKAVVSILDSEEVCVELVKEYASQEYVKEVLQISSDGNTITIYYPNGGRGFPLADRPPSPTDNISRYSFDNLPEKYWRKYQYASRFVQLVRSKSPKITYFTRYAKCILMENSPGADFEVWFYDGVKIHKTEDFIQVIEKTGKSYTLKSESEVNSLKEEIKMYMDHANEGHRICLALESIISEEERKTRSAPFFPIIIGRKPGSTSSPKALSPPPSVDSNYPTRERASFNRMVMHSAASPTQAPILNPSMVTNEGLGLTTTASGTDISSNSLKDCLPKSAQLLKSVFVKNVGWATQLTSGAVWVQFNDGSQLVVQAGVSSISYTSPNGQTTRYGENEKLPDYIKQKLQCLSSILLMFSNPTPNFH
Experimental: as §1

SIK3 = molecular target: T11, SIK3 (Homo sapiens, UniProt Q9Y2K2)
T11 construct: purchased ProQinase (Freiburg, Germany)
Experimental: as §1

TNK1 = molecular target: T12, TNK1 (Homo sapiens, UniProt Q13470)
T12 construct: purchased ProQinase (Freiburg, Germany)
T12 sequence (Q13470 1-666): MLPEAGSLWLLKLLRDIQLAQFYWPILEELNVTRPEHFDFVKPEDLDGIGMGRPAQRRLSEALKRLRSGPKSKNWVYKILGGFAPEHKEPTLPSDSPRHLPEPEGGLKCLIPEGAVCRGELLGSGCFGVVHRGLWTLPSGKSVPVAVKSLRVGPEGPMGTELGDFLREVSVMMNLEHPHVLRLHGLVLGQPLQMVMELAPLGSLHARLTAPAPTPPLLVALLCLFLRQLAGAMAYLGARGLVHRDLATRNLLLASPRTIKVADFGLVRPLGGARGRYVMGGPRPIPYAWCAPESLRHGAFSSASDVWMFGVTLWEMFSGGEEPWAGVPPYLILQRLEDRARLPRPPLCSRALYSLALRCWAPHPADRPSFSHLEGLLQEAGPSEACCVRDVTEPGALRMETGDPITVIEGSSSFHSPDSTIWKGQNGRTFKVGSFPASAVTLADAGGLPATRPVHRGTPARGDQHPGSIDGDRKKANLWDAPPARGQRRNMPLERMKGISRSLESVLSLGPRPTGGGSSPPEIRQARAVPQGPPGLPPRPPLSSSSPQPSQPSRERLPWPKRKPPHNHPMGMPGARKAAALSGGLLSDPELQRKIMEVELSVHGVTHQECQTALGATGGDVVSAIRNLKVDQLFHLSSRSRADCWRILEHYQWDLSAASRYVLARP
Experimental: as §1

T1 sequence (Q13882 whole entry): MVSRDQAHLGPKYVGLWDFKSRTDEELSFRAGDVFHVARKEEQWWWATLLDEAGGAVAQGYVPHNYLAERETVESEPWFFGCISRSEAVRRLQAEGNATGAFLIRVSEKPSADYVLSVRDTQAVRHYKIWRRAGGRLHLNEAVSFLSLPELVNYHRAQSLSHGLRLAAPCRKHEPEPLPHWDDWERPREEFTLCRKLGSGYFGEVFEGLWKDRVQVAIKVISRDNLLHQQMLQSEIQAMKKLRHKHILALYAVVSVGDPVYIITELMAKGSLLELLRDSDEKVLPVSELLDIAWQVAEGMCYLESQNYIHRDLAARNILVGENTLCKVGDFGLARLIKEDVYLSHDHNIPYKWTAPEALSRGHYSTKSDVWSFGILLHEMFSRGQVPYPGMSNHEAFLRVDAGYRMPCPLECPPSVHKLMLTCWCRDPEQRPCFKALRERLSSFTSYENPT
T2 sequence (Q9HAZ1 whole entry): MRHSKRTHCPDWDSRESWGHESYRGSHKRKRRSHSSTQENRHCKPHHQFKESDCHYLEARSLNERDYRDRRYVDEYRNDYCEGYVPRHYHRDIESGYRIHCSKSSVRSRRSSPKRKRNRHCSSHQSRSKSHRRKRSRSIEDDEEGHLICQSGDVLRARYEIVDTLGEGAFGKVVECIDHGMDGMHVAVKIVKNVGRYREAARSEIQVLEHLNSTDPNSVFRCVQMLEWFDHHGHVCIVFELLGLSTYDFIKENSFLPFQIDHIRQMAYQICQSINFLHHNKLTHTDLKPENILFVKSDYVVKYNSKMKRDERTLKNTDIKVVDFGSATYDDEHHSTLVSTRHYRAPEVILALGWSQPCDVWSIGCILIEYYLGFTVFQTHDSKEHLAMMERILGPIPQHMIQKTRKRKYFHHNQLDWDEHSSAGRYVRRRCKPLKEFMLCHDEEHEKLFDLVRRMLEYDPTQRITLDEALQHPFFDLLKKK
T8 sequence (Q96RG2 whole entry): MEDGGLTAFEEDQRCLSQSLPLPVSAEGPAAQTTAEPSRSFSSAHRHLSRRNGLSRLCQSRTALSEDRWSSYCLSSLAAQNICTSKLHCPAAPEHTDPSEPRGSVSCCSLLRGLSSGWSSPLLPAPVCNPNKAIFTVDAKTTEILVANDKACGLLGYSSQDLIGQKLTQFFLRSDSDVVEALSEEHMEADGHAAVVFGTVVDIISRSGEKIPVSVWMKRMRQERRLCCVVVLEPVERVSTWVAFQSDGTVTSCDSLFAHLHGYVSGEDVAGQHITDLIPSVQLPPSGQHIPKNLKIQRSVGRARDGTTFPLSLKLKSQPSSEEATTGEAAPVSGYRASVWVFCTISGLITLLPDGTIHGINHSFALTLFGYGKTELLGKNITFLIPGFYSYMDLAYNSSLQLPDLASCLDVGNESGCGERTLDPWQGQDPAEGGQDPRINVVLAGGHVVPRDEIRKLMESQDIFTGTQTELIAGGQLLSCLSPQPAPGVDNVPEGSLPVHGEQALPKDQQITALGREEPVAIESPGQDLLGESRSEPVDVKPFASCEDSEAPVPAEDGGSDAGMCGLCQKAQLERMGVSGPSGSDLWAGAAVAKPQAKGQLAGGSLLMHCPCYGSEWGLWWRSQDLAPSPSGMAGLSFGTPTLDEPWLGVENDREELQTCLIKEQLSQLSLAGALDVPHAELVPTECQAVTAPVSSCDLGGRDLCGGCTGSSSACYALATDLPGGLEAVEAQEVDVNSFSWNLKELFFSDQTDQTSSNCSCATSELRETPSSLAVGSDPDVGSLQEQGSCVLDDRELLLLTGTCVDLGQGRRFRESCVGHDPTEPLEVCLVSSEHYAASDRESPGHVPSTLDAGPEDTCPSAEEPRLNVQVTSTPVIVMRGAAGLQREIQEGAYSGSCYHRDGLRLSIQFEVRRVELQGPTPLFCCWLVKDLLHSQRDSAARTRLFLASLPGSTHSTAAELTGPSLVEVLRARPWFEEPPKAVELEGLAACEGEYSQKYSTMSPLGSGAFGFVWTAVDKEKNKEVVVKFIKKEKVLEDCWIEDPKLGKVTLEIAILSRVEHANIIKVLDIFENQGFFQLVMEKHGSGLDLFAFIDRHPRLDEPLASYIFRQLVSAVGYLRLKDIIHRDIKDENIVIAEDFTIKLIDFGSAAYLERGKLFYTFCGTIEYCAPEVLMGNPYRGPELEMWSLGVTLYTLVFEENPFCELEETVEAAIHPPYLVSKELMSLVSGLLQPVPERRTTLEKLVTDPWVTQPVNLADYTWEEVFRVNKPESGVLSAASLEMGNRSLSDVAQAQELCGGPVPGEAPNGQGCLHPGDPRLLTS
T5 sequence (P53779 whole entry): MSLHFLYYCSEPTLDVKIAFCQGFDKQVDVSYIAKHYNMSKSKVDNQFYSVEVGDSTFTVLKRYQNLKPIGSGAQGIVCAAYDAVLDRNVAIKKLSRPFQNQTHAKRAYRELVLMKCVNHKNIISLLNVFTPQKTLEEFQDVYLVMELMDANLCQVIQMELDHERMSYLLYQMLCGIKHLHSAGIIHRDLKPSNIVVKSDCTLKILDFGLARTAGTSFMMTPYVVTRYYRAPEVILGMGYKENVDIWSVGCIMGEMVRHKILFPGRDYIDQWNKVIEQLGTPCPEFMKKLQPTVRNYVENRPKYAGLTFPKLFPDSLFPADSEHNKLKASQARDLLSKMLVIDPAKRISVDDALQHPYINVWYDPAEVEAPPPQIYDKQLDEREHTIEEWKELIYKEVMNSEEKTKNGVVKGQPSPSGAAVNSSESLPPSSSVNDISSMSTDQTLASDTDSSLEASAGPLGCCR
T4 sequence (P06213 28-1382): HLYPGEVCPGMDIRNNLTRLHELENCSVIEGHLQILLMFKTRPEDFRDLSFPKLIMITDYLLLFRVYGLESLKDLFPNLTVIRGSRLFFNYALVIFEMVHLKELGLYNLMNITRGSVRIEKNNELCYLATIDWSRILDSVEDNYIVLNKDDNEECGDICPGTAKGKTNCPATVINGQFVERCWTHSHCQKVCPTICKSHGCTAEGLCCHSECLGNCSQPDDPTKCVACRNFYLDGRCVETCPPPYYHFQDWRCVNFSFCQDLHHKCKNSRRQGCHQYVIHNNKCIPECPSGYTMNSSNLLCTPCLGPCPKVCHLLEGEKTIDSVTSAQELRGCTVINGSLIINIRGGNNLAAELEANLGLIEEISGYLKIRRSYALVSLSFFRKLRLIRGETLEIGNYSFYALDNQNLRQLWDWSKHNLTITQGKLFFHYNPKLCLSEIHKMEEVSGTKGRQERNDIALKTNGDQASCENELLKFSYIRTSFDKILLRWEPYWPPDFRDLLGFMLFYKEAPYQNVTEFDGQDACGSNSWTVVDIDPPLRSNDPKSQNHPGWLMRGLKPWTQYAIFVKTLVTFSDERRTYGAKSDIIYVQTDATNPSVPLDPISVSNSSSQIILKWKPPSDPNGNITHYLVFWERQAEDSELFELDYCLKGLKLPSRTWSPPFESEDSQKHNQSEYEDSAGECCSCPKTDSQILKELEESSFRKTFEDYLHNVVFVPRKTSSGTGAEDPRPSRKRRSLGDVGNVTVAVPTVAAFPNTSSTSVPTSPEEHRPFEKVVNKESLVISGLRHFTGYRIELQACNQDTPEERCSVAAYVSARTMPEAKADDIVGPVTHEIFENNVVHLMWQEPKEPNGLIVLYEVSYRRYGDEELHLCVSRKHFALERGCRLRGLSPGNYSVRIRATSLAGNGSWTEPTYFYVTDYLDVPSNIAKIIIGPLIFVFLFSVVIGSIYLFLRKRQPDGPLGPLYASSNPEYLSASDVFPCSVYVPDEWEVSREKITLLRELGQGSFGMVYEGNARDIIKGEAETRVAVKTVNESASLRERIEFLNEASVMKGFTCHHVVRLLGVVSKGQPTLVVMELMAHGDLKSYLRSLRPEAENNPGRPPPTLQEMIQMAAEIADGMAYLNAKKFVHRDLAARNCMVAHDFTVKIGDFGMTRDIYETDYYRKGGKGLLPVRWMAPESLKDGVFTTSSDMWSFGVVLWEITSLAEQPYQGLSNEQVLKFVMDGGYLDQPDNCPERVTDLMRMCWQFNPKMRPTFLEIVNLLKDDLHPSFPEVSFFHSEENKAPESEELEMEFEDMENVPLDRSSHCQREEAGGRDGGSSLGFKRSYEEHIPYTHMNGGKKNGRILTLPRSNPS
T6 sequence (P27448 whole entry): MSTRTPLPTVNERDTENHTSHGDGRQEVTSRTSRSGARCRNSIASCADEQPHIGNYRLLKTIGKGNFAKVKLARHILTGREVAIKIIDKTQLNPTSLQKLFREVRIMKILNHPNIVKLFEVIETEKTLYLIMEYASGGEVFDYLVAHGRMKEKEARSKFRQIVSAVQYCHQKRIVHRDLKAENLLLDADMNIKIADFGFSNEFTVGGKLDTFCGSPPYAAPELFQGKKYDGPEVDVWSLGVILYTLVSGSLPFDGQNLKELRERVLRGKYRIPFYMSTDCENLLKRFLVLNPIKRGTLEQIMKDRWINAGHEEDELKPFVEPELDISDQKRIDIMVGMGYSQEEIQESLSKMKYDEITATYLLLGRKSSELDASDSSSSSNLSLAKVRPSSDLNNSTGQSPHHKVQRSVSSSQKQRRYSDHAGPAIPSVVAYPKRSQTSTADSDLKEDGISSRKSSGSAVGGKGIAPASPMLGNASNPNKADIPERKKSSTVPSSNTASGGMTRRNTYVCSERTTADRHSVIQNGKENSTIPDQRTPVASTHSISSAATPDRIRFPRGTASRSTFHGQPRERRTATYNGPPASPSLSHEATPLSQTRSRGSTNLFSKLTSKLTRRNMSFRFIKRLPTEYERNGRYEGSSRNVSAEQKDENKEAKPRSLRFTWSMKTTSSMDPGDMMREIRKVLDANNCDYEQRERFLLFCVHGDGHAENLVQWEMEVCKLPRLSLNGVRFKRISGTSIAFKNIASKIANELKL

Compound | Residual activity (BRK; 1.0E-05 M) | Residual activity (BRK; 1.0E-06 M) | Residual activity (CLK4; 1.0E-05 M) | Residual activity (CLK4; 1.0E-06 M) | Residual activity (FGFR2; 1.0E-05 M) | Residual activity (FGFR2; 1.0E-06 M) | Residual activity (INSR; 1.0E-05 M) | Residual activity (INSR; 1.0E-06 M) | Residual activity (JNK3; 1.0E-05 M) | Residual activity (JNK3; 1.0E-06 M) | Residual activity (MARK3; 1.0E-05 M) | Residual activity (MARK3; 1.0E-06 M) | Residual activity (NIK; 1.0E-05 M) | Residual activity (NIK; 1.0E-06 M) | Residual activity (PASK; 1.0E-05 M) | Residual activity (PASK; 1.0E-06 M) | Residual activity (PKMYT1; 1.0E-05 M) | Residual activity (PKMYT1; 1.0E-06 M) | Residual activity (SAK; 1.0E-05 M) | Residual activity (SAK; 1.0E-06 M) | other results
O=C(Cc1ccccc1)Nc1ccc(F)c(Nc2ccc3c(c2)CCCCC3=O)c1 [Compound 100] | 106 % of control | 105 % of control | 98 % of control | 103 % of control | 51 % of control | 90 % of control | 92 % of control | 95 % of control | 119 % of control | 96 % of control | 103 % of control | 106 % of control | 103 % of control | 93 % of control | 97 % of control | 107 % of control | 93 % of control | 102 % of control | 81 % of control | 92 % of control | Residual activity (SIK3; 1.0E-05 M): 87 % of control; Residual activity (SIK3; 1.0E-06 M): 95 % of control; Residual activity (TNK1; 1.0E-05 M): 72 % of control; Residual activity (TNK1; 1.0E-06 M): 101 % of control
O=C(Nc1ccc(F)c(Nc2ccc3c(c2)CCCCC3=O)c1)c1cccc(F)c1 [Compound 109] | 84 % of control | 105 % of control | 108 % of control | 105 % of control | 74 % of control | 97 % of control | 84 % of control | 95 % of control | 92 % of control | 83 % of control | 105 % of control | 102 % of control | 103 % of control | 103 % of control | 97 % of control | 95 % of control | 95 % of control | 98 % of control | 71 % of control | 89 % of control | Residual activity (SIK3; 1.0E-05 M): 99 % of control; Residual activity (SIK3; 1.0E-06 M): 96 % of control; Residual activity (TNK1; 1.0E-05 M): 85 % of control; Residual activity (TNK1; 1.0E-06 M): 89 % of control
